From the NIST ThermoML archive (doi:10.1016/j.jct.2009.06.016)
Several values for one entry are separate records, joined by “and”; a condition that tells them apart may be missing. Equal entries are not always repeated. ± gives the expanded uncertainty stated by the source.

Test: xn = mol fraction of the nth substance listed
Details: 101 kPa, Liquid, Vibrating tube method

CCCOCC(C)O (centres undefined) [1-propoxy-2-propanol] + O
mass density
Details | 293.15 K | 298.15 K | 303.15 K
x1 = 0.001639 | – | 996.607 ± 0.058 kg/m3 | 995.166 ± 0.059 kg/m3
x1 = 0.003265 | – | 996.203 ± 0.056 kg/m3 | 994.729 ± 0.058 kg/m3
x1 = 0.01049 | – | 994.754 ± 0.056 kg/m3 | 993.101 ± 0.057 kg/m3
x1 = 0.01741 | – | 993.639 ± 0.056 kg/m3 | 991.738 ± 0.058 kg/m3
x1 = 0.02413 | – | 992.449 ± 0.059 kg/m3 | 990.242 ± 0.063 kg/m3
x1 = 0.02492 | – | 992.281 ± 0.059 kg/m3 | 990.035 ± 0.063 kg/m3
x1 = 0.03341 | – | 990.099 ± 0.064 kg/m3 | 987.376 ± 0.068 kg/m3
x1 = 0.0411 | – | 987.401 ± 0.07 kg/m3 | 984.348 ± 0.073 kg/m3
x1 = 0.04904 | – | 984.302 ± 0.072 kg/m3 | 981.013 ± 0.074 kg/m3
x1 = 0.05896 | – | 980.443 ± 0.073 kg/m3 | 976.913 ± 0.075 kg/m3
x1 = 0.06919 | – | 976.629 ± 0.074 kg/m3 | 972.832 ± 0.076 kg/m3
x1 = 0.07722 | – | 973.676 ± 0.074 kg/m3 | 969.873 ± 0.075 kg/m3
x1 = 0.08896 | – | 969.756 ± 0.075 kg/m3 | 965.792 ± 0.076 kg/m3
x1 = 0.09833 | – | 966.718 ± 0.075 kg/m3 | 962.723 ± 0.076 kg/m3
x1 = 0.1083 | – | 963.724 ± 0.076 kg/m3 | 959.684 ± 0.077 kg/m3
x1 = 0.1182 | – | 960.927 ± 0.076 kg/m3 | 956.826 ± 0.077 kg/m3
x1 = 0.1249 | – | 959.154 ± 0.077 kg/m3 | 955.036 ± 0.078 kg/m3
x1 = 0.1283 | – | 958.25 ± 0.077 kg/m3 | 954.135 ± 0.078 kg/m3
x1 = 0.1365 | – | 956.19 ± 0.077 kg/m3 | 952.054 ± 0.078 kg/m3
x1 = 0.1475 | – | 953.581 ± 0.078 kg/m3 | 949.414 ± 0.079 kg/m3
x1 = 0.1677 | – | 949.056 ± 0.079 kg/m3 | 944.898 ± 0.08 kg/m3
x1 = 0.1955 | – | 943.61 ± 0.082 kg/m3 | 939.419 ± 0.082 kg/m3
x1 = 0.2281 | – | 937.893 ± 0.085 kg/m3 | 933.693 ± 0.085 kg/m3
x1 = 0.2743 | – | 931.11 ± 0.09 kg/m3 | 926.81 ± 0.09 kg/m3
x1 = 0.3208 | – | 924.917 ± 0.095 kg/m3 | 920.58 ± 0.096 kg/m3
x1 = 0.3483 | – | 921.878 ± 0.098 kg/m3 | 917.532 ± 0.099 kg/m3
x1 = 0.3738 | – | 919.12 ± 0.1 kg/m3 | 914.74 ± 0.1 kg/m3
x1 = 0.4214 | – | 914.335 ± 0.11 kg/m3 | 909.931 ± 0.11 kg/m3
x1 = 0.4787 | – | 909.35 ± 0.12 kg/m3 | 904.97 ± 0.12 kg/m3
x1 = 0.5257 | – | 905.586 ± 0.13 kg/m3 | 901.122 ± 0.13 kg/m3
x1 = 0.548 | – | 904.085 ± 0.13 kg/m3 | 899.604 ± 0.13 kg/m3
x1 = 0.5771 | – | 902.07 ± 0.14 kg/m3 | 897.57 ± 0.14 kg/m3
x1 = 0.5977 | 905.093 ± 0.14 kg/m3 | 900.499 ± 0.14 kg/m3 | 896.129 ± 0.14 kg/m3
x1 = 0.6247 | 903.425 ± 0.14 kg/m3 | 898.961 ± 0.14 kg/m3 | 894.432 ± 0.15 kg/m3
x1 = 0.6264 | 903.218 ± 0.14 kg/m3 | 898.785 ± 0.14 kg/m3 | 894.261 ± 0.15 kg/m3
x1 = 0.6385 | 902.498 ± 0.15 kg/m3 | 897.87 ± 0.15 kg/m3 | 893.542 ± 0.15 kg/m3
x1 = 0.672 | 900.577 ± 0.15 kg/m3 | 896.108 ± 0.15 kg/m3 | 891.567 ± 0.15 kg/m3
x1 = 0.6758 | 900.301 ± 0.15 kg/m3 | 895.81 ± 0.15 kg/m3 | 891.293 ± 0.16 kg/m3
x1 = 0.6793 | 900.121 ± 0.15 kg/m3 | 895.632 ± 0.16 kg/m3 | 891.142 ± 0.16 kg/m3
x1 = 0.7192 | 897.954 ± 0.16 kg/m3 | 893.432 ± 0.16 kg/m3 | 888.909 ± 0.17 kg/m3
x1 = 0.7272 | 897.467 ± 0.17 kg/m3 | 892.945 ± 0.17 kg/m3 | 888.391 ± 0.17 kg/m3
x1 = 0.7448 | 896.614 ± 0.17 kg/m3 | 892.14 ± 0.17 kg/m3 | 887.56 ± 0.17 kg/m3
x1 = 0.7589 | 895.887 ± 0.17 kg/m3 | 891.371 ± 0.17 kg/m3 | 886.848 ± 0.17 kg/m3
x1 = 0.7682 | 895.456 ± 0.17 kg/m3 | 890.967 ± 0.17 kg/m3 | 886.382 ± 0.18 kg/m3
x1 = 0.7858 | 894.6 ± 0.18 kg/m3 | 890.07 ± 0.18 kg/m3 | 885.47 ± 0.18 kg/m3
x1 = 0.7981 | 894.001 ± 0.18 kg/m3 | 889.483 ± 0.18 kg/m3 | 884.923 ± 0.18 kg/m3
x1 = 0.8224 | 892.828 ± 0.19 kg/m3 | 888.311 ± 0.19 kg/m3 | 883.721 ± 0.19 kg/m3
x1 = 0.8398 | 891.636 ± 0.19 kg/m3 | 887.602 ± 0.19 kg/m3 | 882.984 ± 0.19 kg/m3
x1 = 0.8588 | 891.133 ± 0.2 kg/m3 | 886.589 ± 0.2 kg/m3 | 882.007 ± 0.2 kg/m3
x1 = 0.8792 | 890.346 ± 0.2 kg/m3 | 885.821 ± 0.2 kg/m3 | 881.196 ± 0.2 kg/m3
x1 = 0.8796 | 890.337 ± 0.2 kg/m3 | 885.871 ± 0.2 kg/m3 | 881.204 ± 0.2 kg/m3
x1 = 0.8993 | 889.399 ± 0.21 kg/m3 | 884.854 ± 0.21 kg/m3 | 880.259 ± 0.21 kg/m3
x1 = 0.9197 | 888.659 ± 0.21 kg/m3 and 888.679 ± 0.21 kg/m3 | 884.155 ± 0.21 kg/m3 and 884.109 ± 0.21 kg/m3 | 879.548 ± 0.21 kg/m3 and 879.479 ± 0.21 kg/m3
x1 = 0.9388 | 887.803 ± 0.22 kg/m3 | 883.236 ± 0.22 kg/m3 | 878.623 ± 0.22 kg/m3
x1 = 0.9486 | 887.413 ± 0.22 kg/m3 | 882.854 ± 0.22 kg/m3 | 878.219 ± 0.22 kg/m3
x1 = 0.9609 | 886.918 ± 0.22 kg/m3 | 882.36 ± 0.22 kg/m3 | 877.745 ± 0.22 kg/m3
x1 = 0.9628 | 887.059 ± 0.22 kg/m3 | 882.424 ± 0.22 kg/m3 | 877.865 ± 0.22 kg/m3
x1 = 0.9716 | 886.524 ± 0.23 kg/m3 | 881.962 ± 0.23 kg/m3 | 877.362 ± 0.23 kg/m3
x1 = 0.9798 | 886.193 ± 0.23 kg/m3 | 881.641 ± 0.23 kg/m3 | 876.998 ± 0.23 kg/m3
x1 = 0.9818 | 886.123 ± 0.23 kg/m3 | 881.551 ± 0.23 kg/m3 | 876.955 ± 0.23 kg/m3
x1 = 0.9919 | 885.746 ± 0.23 kg/m3 | 881.183 ± 0.23 kg/m3 | 876.546 ± 0.23 kg/m3
x1 = 1 | 885.456 ± 0.23 kg/m3 | 880.837 ± 0.23 kg/m3 | 876.279 ± 0.23 kg/m3
